Assay [1] has as its target T1, Matrix metalloproteinase 9 (MMP-9) (Homo sapiens, UniProt P14780).
T1 construct: purchased Calbiochem 444231
The assay can be described thus: Enzyme inhibition experiment, MMP-9. The format is biochemical. The following applies: 444221 substrate, 37° C., 4 hours. On the procedure:
(§1) The enzyme reaction was carried out using the enzymes and substrates. Specifically, if necessary, the enzyme was activated in advance with APMA (final concentration 1 mmol/L, p-aminophenylmercuric acetate, manufactured by Sigma-Aldrich Co., A9563) according to information from the manufacturer. Then, in a 96-well plate for fluorescence measurement, 90 μL of an enzyme solution prepared with Assay Buffer A (50 mmol/L Tris-HCl buffer (pH 7.5) containing 200 mmol/L sodium chloride, 5 mmol/L calcium chloride, 10 μmol/L zinc sulfate, and 2 mg/mL bovine serum albumin) was mixed with 90 μL of the substrate adjusted to be 20 μmol/L with Assay Buffer B (50 mmol/L Tris-HCl buffer (pH 7.5) containing 200 mmol/L sodium chloride, 5 mmol/L calcium chloride, 10 μmol/L zinc sulfate, and 0.05% PLURONIC F-68), and incubated for reaction at 25° C. or 37° C. for several hours. Moreover, the fluorescence intensities before and after the reaction were measured using a fluorometer to determine the enzyme activity.

Assay [2] has as its target T2, Matrix metalloproteinase 13 (MMP-13) (Homo sapiens, UniProt P45452).
T2 construct: purchased Chemicon CC068
The assay can be described thus: Enzyme inhibition experiment, MMP-13. The format is biochemical. The following applies: 444221 substrate, 37° C., 4 hours. As for the experimental part:
Matrix metalloproteinase 13 (MMP-13) (manufactured by Chemicon, product number: CC068)
as §1

Assay [3] addresses T3, Matrix metalloproteinase 14 (MMP-14) (Homo sapiens, UniProt P50281).
T3 construct: purchased Calbiochem 475935
Description: Enzyme inhibition experiment, MMP-14. The format is biochemical. The following applies: 444221 substrate, 37° C., 5 hours. As for the experimental part:
Matrix metalloproteinase 14 (MMP-14) (manufactured by Calbiochem, product number: 475935)
444221 substrate (DNP-Pro-Cha-Gly-Cys(Me)-His-Ala-Lys(Nma)-NH2, custom synthesis): excitation wavelength at 355 nm, emission wavelength at 460 nm
as §1, with “activity. An inhibition rate was obtained based on the enzyme activities in the presence and absence of the test substances, and the 50% inhibitory concentration (IC50) was calculated.” for “activity.”

The target of assay [4] is T4, Matrix metalloproteinase 17 (MMP-17) (Homo sapiens, UniProt Q9ULZ9).
T4 construct: purchased Calbiochem 475940
T4 sequence (Q9ULZ9 126-298 limits assumed): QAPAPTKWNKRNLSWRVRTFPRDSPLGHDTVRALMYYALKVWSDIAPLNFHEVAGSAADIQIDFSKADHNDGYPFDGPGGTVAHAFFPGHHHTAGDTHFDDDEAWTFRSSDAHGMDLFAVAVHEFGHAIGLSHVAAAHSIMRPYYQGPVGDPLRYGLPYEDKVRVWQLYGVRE
The assay can be described thus: Enzyme inhibition experiment, MMP-17. The format is biochemical. The following applies: 3163 substrate, 25° C., 5 hours. On the procedure:
Matrix metalloproteinase 17 (MMP-17) (manufactured by Calbiochem, product number: 475940)
3168 substrate (MOCAc-Arg-Pro-Lys-Pro-Val-Glu-Nva-Trp-Arg-Lys(Dnp)-NH2, manufactured by Peptide Institute, Inc.): excitation wavelength at 320 nm, emission wavelength at 405 nm, and 3163 substrate (MOCAc-Pro-Leu-Gly-Leu-A2pr(Dnp)-Ala-Arg-NH2, manufactured by Peptide Institute, Inc.): excitation wavelength at 320 nm, emission wavelength at 405 nm.
as §1, with “activity. An inhibition rate was obtained based on the enzyme activities in the presence and absence of the test substances, and the 50% inhibitory concentration (IC50) was calculated.” for “activity.”

For assay [5], the target named is T5, A disintegrin and metalloproteinase 10 (ADAM10) (Homo sapiens, UniProt O14672).
T5 construct: purchased Funakoshi Co., Ltd. 936-AD-020
T5 sequence (O14672 214-672 limits assumed): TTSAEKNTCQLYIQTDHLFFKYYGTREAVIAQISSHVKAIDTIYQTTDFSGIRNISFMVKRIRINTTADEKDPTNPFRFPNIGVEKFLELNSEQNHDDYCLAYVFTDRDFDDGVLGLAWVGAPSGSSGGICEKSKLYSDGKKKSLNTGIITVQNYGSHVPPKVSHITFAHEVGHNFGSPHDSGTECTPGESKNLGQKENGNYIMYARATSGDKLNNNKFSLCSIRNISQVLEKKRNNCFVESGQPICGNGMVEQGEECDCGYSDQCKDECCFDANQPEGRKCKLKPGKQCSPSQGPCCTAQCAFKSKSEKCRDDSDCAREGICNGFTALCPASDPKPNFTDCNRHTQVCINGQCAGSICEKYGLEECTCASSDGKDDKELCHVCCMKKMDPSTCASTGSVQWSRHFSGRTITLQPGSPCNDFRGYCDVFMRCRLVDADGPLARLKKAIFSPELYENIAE
The assay can be described thus: Enzyme inhibition experiment, ADAM10. The format is biochemical. The following applies: degree somewhat low in comparison with ADAM17. As for the experimental part:
A disintegrin and metalloproteinase 10 (ADAM10) (manufactured by Funakoshi Co., Ltd., product code: 936-AD-020) and
TACE substrate (the same as one used in Test Example 3): excitation wavelength at 355 nm, emission wavelength at 460 nm
as §1, with “activity. An inhibition rate was obtained based on the enzyme activities in the presence and absence of the test substances, and the 50% inhibitory concentration (IC50) was calculated.” for “activity.”

For assay [6], the system named is human peripheral blood PRP (platelet-rich plasma). Description: Function-maintaining effect on human peripheral blood PRP (flow cytometry CD41/CD42b). The following applies: Test Example 12; 37° C., 24 hours or 72 hours; S-45457 50 μM, S-45282 5 μM, p38 inhibitors 40 μM. The format is cell-based.

T1 sequence (P14780 94-707): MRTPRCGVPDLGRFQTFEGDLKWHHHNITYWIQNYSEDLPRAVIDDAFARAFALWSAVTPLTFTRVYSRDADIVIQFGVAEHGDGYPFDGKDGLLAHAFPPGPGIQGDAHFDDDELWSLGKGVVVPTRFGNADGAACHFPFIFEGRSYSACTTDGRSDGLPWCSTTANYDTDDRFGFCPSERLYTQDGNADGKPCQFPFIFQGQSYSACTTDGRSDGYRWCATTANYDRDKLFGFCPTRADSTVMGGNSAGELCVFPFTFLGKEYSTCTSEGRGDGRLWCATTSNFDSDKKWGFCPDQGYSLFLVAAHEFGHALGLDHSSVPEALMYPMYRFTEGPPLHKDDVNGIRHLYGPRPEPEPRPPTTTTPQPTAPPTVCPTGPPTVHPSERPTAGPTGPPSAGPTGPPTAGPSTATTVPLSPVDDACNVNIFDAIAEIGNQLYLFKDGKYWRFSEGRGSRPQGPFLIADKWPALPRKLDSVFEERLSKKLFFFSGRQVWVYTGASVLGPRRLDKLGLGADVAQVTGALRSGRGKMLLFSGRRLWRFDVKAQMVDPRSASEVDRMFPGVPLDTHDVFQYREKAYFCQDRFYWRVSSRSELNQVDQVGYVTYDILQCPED

As for `CC#CCOc1ccc(S(=O)(=O)CC(c2ccc(CN(CC)CC)cc2)N(O)C=O)cc1` (stereo not drawn) [Compound I-1, N-[2-(4-But-2-ynyloxybenzenesulfonyl)-1-(4-diethylaminomethylphenyl)ethyl]-N-hydroxyformamide], the IC50 in assay [1] is 11000 nM; in assay [2], 550 nM; in assay [3], 1000 nM; in assay [4] it was 2800 nM. Moreover, in assay [5], the “suppression of ADAM10 (in words)” value was “suppressed ADAM10”. The “function-maintaining effect on human peripheral blood PRP” value in assay [6] is recorded as “strong effect of maintaining a function of human peripheral blood PRP”.
With `CC#CCOc1ccc(S(=O)(=O)CC(c2ccc(CNS(C)(=O)=O)cc2)N(O)C=O)cc1` (stereo not drawn) [Compound I-4, N-{4-[2-(4-But-2-ynyloxybenzenesulfonyl)-1-(formylhydroxyamino)ethyl]benzyl}methanesulfonamide], the IC50 in assay [1] is 11000 nM; in assay [2], 700 nM; in assay [3], 1400 nM; in assay [4] it was 3400 nM. Besides, the “suppression of ADAM10 (in words)” value in assay [5] is “suppressed ADAM10”. Also, the “function-maintaining effect on human peripheral blood PRP” value in assay [6] is reported as “capable of continuously suppressing ADAM17-mediated GPIbα (CD42b) shedding even incubated for 72 hours”.

As usually defined, the IC50 is the concentration needed to halve the response being measured.

For the origin of these results see US9034922B2, “Composition for maintaining function of platelets” (THE UNIVERSITY OF TOKYO, priority 2010, dated 2015).
